From patent US20230157952A1, “METHOD FOR IMPROVING THE STABILITY OF A PHARMACEUTICAL COMPOSITION COMPRISING A HIGH PENETRATION DRUG, AND THE PHARMACEUTICAL COMPOSITION OBTAINED THEREFROM” (Techfields Inc., priority 2020, published 2023)

Test: Effect of concentration on the stability of the solution (purity over time)
Settings: for Stability of common ester over the concentrations tested: 0.01% to 10% (or higher) in 50% ethanol at 25° C.; for Purity (%) at Day 3 / Purity (%) at Day 7 / Purity (%) at hr 0 / Purity (%) at hr 24 / Purity(%) at Day 14 / Purity(%) at Day 28 / Purity (%) at hr 2: 25° C.

Structure (SMILES)	Stability of common ester over the concentrations tested	Purity (%) at Day 3 (0.01 wt % in 50% ethanol) [%]	Purity (%) at Day 7 (0.01 wt % in 50% ethanol) [%]	Purity (%) at hr 0 (0.01 wt % in 50% ethanol) [%]	Purity (%) at hr 24 (0.01 wt % in 50% ethanol) [%]	Purity(%) at Day 14 (0.01 wt % in 50% ethanol) [%]	Purity (%) at Day 3 (0.1 wt % in 50% ethanol) [%]	Purity (%) at Day 7 (0.1 wt % in 50% ethanol) [%]	Purity (%) at hr 0 (0.1 wt % in 50% ethanol) [%]	Purity (%) at hr 24 (0.1 wt % in 50% ethanol) [%]	Purity(%) at Day 14 (0.1 wt % in 50% ethanol) [%]	Purity (%) at Day 3 (1 wt % in 50% ethanol) [%]	Purity (%) at Day 7 (1 wt % in 50% ethanol) [%]	Purity (%) at hr 0 (1 wt % in 50% ethanol) [%]	Purity (%) at hr 24 (1 wt % in 50% ethanol) [%]	Purity(%) at Day 14 (1 wt % in 50% ethanol) [%]	Purity (%) at Day 3 (3 wt % in 50% ethanol) [%]	Purity (%) at Day 7 (3 wt % in 50% ethanol) [%]	Purity (%) at hr 0 (3 wt % in 50% ethanol) [%]	Purity (%) at hr 24 (3 wt % in 50% ethanol) [%]	further results
CCOC(=O)c1ccccc1 [Ethyl benzoate, reference compound]	very stable	97.4	96.9	97.8	97.6	96.1	97.6	97.5	97.9	97.7	97.2	97.7	97.6	98.0	97.8	97.5	97.8	97.7	97.9	97.8	Purity(%) at Day 28 (0.01 wt % in 50% ethanol): 95.3%; Purity(%) at Day 28 (0.1 wt % in 50% ethanol): 95.9%; Purity(%) at Day 28 (1 wt % in 50% ethanol): 97.3%; Purity(%) at Day 14 (3 wt % in 50% ethanol): 97.6%; Purity(%) at Day 28 (3 wt % in 50% ethanol): 97.5%; Purity (%) at Day 3 (5 wt % in 50% ethanol): 97.8%; Purity (%) at Day 7 (5 wt % in 50% ethanol): 97.7%; Purity (%) at hr 0 (5 wt % in 50% ethanol): 98.0%; Purity (%) at hr 24 (5 wt % in 50% ethanol): 97.8%; Purity(%) at Day 14 (5 wt % in 50% ethanol): 97.6%; Purity(%) at Day 28 (5 wt % in 50% ethanol): 97.6%; Purity (%) at Day 3 (10 wt % in 50% ethanol): 97.8%; Purity (%) at Day 7 (10 wt % in 50% ethanol): 97.8%; Purity (%) at hr 0 (10 wt % in 50% ethanol): 97.9%; Purity (%) at hr 24 (10 wt % in 50% ethanol): 97.8%; Purity(%) at Day 14 (10 wt % in 50% ethanol): 97.7%; Purity(%) at Day 28 (10 wt % in 50% ethanol): 97.6%
CC(C)(C)OC(=O)c1ccccc1 [t-Butyl benzoate, reference compound]	very unstable	0.0	0.0	97.5	0.0	0.0	0.0	0.0	97.4	0.0	0.0	0.0	0.0	97.5	1.6	0.0	1.1	0.0	97.4	15.4	Purity (%) at hr 2 (0.01 wt % in 50% ethanol): 25.2%; Purity (%) at hr 2 (0.1 wt % in 50% ethanol): 31.2%; Purity (%) at hr 2 (1 wt % in 50% ethanol): 41.3%; Purity (%) at hr 2 (3 wt % in 50% ethanol): 52.3%; Purity(%) at Day 14 (3 wt % in 50% ethanol): 0.0%; Purity (%) at Day 3 (5 wt % in 50% ethanol): 3.6%; Purity (%) at Day 7 (5 wt % in 50% ethanol): 0.0%; Purity (%) at hr 0 (5 wt % in 50% ethanol): 97.4%; Purity (%) at hr 2 (5 wt % in 50% ethanol): 56.3%; Purity (%) at hr 24 (5 wt % in 50% ethanol): 20.3%; Purity(%) at Day 14 (5 wt % in 50% ethanol): 0.0%; Purity (%) at Day 3 (10 wt % in 50% ethanol): 5.1%; Purity (%) at Day 7 (10 wt % in 50% ethanol): 0.0%; Purity (%) at hr 0 (10 wt % in 50% ethanol): 97.8%; Purity (%) at hr 2 (10 wt % in 50% ethanol): 65.5%; Purity (%) at hr 24 (10 wt % in 50% ethanol): 25.1%; Purity(%) at Day 14 (10 wt % in 50% ethanol): 0.0%
CCN(CC)CCOC(=O)CCCc1ccc(N(CCCl)CCCl)cc1.Cl [2-(diethylamino)ethyl 4-[bis(2-chloroethyl)amino]benzenebutyrate.HCl]																					Stability when the concentration is 0.1% or lower (in water at 25° C.): not stable
